In patent publication US10603345B2, “Pharmaceutical composition for treating respiratory disease” (Kunming Institute of Botany, The Chinese Academy of Sciences, priority 2015, dated 2020):

What was measured:
Type in all cases: in vivo
[1] = tested on: white blood cell count and classification in BALF of COPD model mouse; experiment: Effect on white blood cell count and classification in BALF of COPD model mouse; conditions: COPD mouse (LPS plus smoke exposure 30 days), ig 7 d, dose/kg: dexamethasone 1 mg, Test group 1 50, 2 25, 3 10, picrinine 10, vallesamine 6, scholaricine 7, 19-epi-scholaricine 2 mg, x ± SD
Experimental: (§1) Animal source: 25˜30 g male ICR mouse, from laboratory animal department of Kunming Medical University, License No. SCXK (Dian) 2011-0004.
(§2) Method and route: lipopolysaccharide (LPS) plus smoke exposure was used for 30 days to induce mouse chronic obstructive pulmonary disease model; and after intragastrical administration for 7 d at a dose of 20 mL/kg, the animal was sacrificed at the eighth day.
(§3) Picrinine group (10 mg/kg), Vallesamine group (6.0 mg/kg), Scholaricine group (7.0 mg/kg), 19-epischolaricine group (2.0 mg/kg).
(§4) Sample preparation: all the samples were prepared by using 0.5% carboxymethylcellulose sodium (0.5% CMC-Na).
Group and dose: in Test group 1, the ratio of picrinine, vallesamine, scholaricine and 19-epischolaricine by weight was 48:40:29:10, and the other groups and doses thereof were as described in Example 10.
Test index: total number of white blood cells and inflammatory cell classification in bronchoalveolar lavage fluid (BALF) were used as indexes, and were determined by full-automatic hemocytometer.

[2] = tested on: IL-6 in serum of COPD model mouse; experiment: Effect on IL-6 in serum of COPD model mouse; conditions: ELISA, ig 7 d, dose/kg: dexamethasone 1 mg, Test group 1 50, 2 25, 3 10, picrinine 10, vallesamine 6, scholaricine 7, 19-epi-scholaricine 2 mg, x ± SD
Experimental: as §1, §2, §3, §4
Group and dose: in Test group 1, the ratio of picrinine, vallesamine, scholaricine and 19-epischolaricine by weight was 38:30:27:7, and the other groups and doses thereof were as described in Example 10.
Test index: IL-6 in serum was used as index, and was determined by enzyme linked immunosorbent assay.

[3] = tested on: SOD in serum and homogenate of COPD model mouse; experiment: Effect on SOD in serum and homogenate of COPD model mouse; conditions: ig 7 d, dose/kg: dexamethasone 1 mg, Test group 1 50, 2 25, 3 10, picrinine 10, vallesamine 6, scholaricine 7, 19-epi-scholaricine 2 mg, x ± SD; for SOD homogenate: lung homogenate
Experimental: as §1, §2, §3, §4
Group and dose: in Test group 1, the ratio of picrinine, vallesamine, scholaricine and 19-epischolaricine by weight was 16:11:12:3, and the other groups and doses thereof were as described in Example 10.
Test index: SOD in serum and lung homogenate was used as index, and was determined by xanthine oxidase method.

[4] = tested on: MDA in serum and homogenate of COPD model mouse; experiment: Effect on MDA in serum and homogenate of COPD model mouse; conditions: ig 7 d; for content of MDA (serum or homogenate not given): vallesamine 6, scholaricine 7, 19-epi-scholaricine 2 mg/kg; for MDA Homogenate: lung homogenate; for MDA Homogenate / MDA Serum: dose/kg: dexamethasone 1 mg, Test group 1 50, 2 25, 3 10, picrinine 10, vallesamine 6, scholaricine 7, 19-epi-scholaricine 2 mg, x ± SD
Experimental: as §1, §2, §3, §4
Group and dose: in Test group 1, the ratio of picrinine, vallesamine, scholaricine and 19-epischolaricine by weight was 9:6:5:1, and the other groups and doses thereof were as described in Example 10.
Test index: MDA in serum and homogenate was used as index, and was determined by thibabituric acid method.

[5] = tested on: Eotaxin in serum of asthma model mouse; experiment: Effect on Eotaxin in serum of asthma model mouse; conditions: ELISA, ig 7 d, dose/kg: dexamethasone 2.0 mg, Test group 1 50, 2 25, picrinine 5.0, vallesamine 3.0, scholaricine 3.0, 19-epi-scholaricine 3.5 mg, x ± SD
Experimental: as §1
(§5) Method and route: ovalbumin (OVA) was used to induce mouse asthma model, and after intragastrical administration for 7 d at a dose of 20 mL/kg, the animal was sacrificed at the eighth day.
(§6) Test group 1: picrinine, vallesamine, scholaricine and 19-epischolaricine prepared in Example 1.7 were homogeneously mixed at different ratios by weight (50 mg/kg), Test group 2: the alkaloid composition prepared in Example 1.4 (25 mg/kg). […]
as §4
Group and dose: in Test group 1, the ratio of picrinine, vallesamine, scholaricine and 19-epischolaricine by weight was 37:42:30:8, and the other groups and doses thereof were as described in Example 11.
Test index: eosinophil chemotactic factor (Eotaxin) in serum was used as index, and was determined by enzyme linked immunosorbent assay.

[6] = tested on: IgE in serum of asthma model mouse; experiment: Effect on IgE in serum of asthma model mouse; conditions: ELISA, ig 7 d, dose/kg: dexamethasone 2.0 mg, Test group 1 50, 2 25, picrinine 5.0, vallesamine 3.0, scholaricine 3.0, 19-epi-scholaricine 3.5 mg, x ± SD
Experimental: as §1, §5, §6, §4
Group and dose: In Test group 1, the ratio of picrinine, vallesamine, scholaricine and 19-epischolaricine by weight was 30:33:27:6, and the other groups and doses thereof were as described in Example 11.
Test index: immunoglobulin IgE in serum was used as index, and was determined by enzyme linked immunosorbent assay.

[7] = tested on: IL-4 in BALF of asthma model mouse; experiment: Effect on IL-4 in BALF of asthma model mouse; conditions: ELISA, ig 7 d, dose/kg: dexamethasone 2.0 mg, Test group 1 50, 2 25, picrinine 5.0, vallesamine 3.0, scholaricine 3.0, 19-epi-scholaricine 3.5 mg, x ± SD
Experimental: as §1, §5, §6, §4
Group and dose: in Test group 1, the ratio of picrinine, vallesamine, scholaricine and 19-epischolaricine by weight was 25:18:15:3, and the other groups and doses thereof were as described in Example 11. […]

[8] = tested on: SOD in serum and BALF of asthma model mouse; experiment: Effect on SOD in serum and BALF of asthma model mouse; conditions: ig 7 d, dose/kg: dexamethasone 2.0 mg, Test group 1 50, 2 25, picrinine 5.0, vallesamine 3.0, scholaricine 3.0, 19-epi-scholaricine 3.5 mg, x ± SD; for SOD lavage fluid: BALF
Experimental: as §1, §5, §6, §4
Group and dose: in Test group 1, the ratio of picrinine, vallesamine, scholaricine and 19-epischolaricine by weight was 12:10:9:2, and the other groups and doses thereof were as described in Example 11.
Test index: SOD in serum and BALF was used as index, and was determined by xanthine oxidase method.

[9] = tested on: MDA in serum and BALF of asthma model mouse; experiment: Effect on MDA in serum and BALF of asthma model mouse; conditions: ig 7 d, dose/kg: dexamethasone 2.0 mg, Test group 1 50, 2 25, picrinine 5.0, vallesamine 3.0, scholaricine 3.0, 19-epi-scholaricine 3.5 mg, x ± SD; for MDA lavage fluid: BALF
Experimental: as §1, §5, §6, §4
Group and dose: in Test group 1, the ratio of picrinine, vallesamine, scholaricine and 19-epischolaricine by weight was 8:6:5:1, and the other groups and doses thereof were as described in Example 11.
Test index: MDA in serum and BALF was used as index, and was determined by thiobarbituric acid method.

Row | Compound | Leukocyte number [1] | IL-6 [2] [pg/mL] | SOD homogenate [3] [U/mL] | content of MDA (serum or homogenate not given) [4] | MDA Homogenate [4] [nmol/mL] | MDA Serum [4] [nmol/mL] | Eotaxin [5] [pg/mL] | IgE [6] [µg/mL] | IL-4 [7] [pg/mL] | SOD lavage fluid [8] [U/mL] | SOD Serum [8] [U/mL] | MDA lavage fluid [9] [nmol/mL] | MDA Serum [9] [nmol/mL] | SOD Serum [3] [U/mL] | Neutrophil number [1]
1 | COC(=O)C1=C2Nc3c(O)cccc3[C@@]23CCN2C[C@@H]([C@H](C)O)[C@@H]1C[C@H]23 [19-epi-scholaricine, 19-epischolaricine] | 2.0 ± 1.6 ×10^5/mL | 23.3 ± 4.1 | 61.32 ± 9.35 | significantly decrease | 6.03 ± 0.66 | 10.94 ± 1.67 | 8.74 ± 1.40 | 3.55 ± 0.87 | 11.16 ± 3.58 | 71.82 ± 12.39 | 73.85 ± 7.93 | 2.55 ± 1.47 | 13.55 ± 4.66 |  | 
2 | C/C=C1/CN2[C@@H]3C[C@@]45c6ccccc6N[C@]4(O3)[C@@H]2C[C@@H]1[C@H]5C(=O)OC [picrinine] | 2.1 ± 1.8 ×10^5/mL | 23.9 ± 3.9 | 56.01 ± 12.78 |  | 6.17 ± 1.46 | 11.21 ± 4.46 | 9.03 ± 1.80 | 3.85 ± 0.72 | 12.60 ± 4.39 | 62.32 ± 8.22 | 70.31 ± 7.30 | 3.29 ± 2.07 | 14.03 ± 5.71 | 91.15 ± 10.90 | 
3 | C/C=C1/CN2CC[C@@H]1[C@@](CO)(C(=O)OC)c1[nH]c3ccccc3c1C2 [vallesamine] | 1.8 ± 1.7 ×10^5/mL | 25.0 ± 3.6 | 58.43 ± 5.73 | significantly decrease | 7.12 ± 1.44 | 11.07 ± 1.29 | 8.90 ± 2.36 | 3.57 ± 0.99 | 11.61 ± 2.40 | 70.88 ± 8.52 | 70.53 ± 7.77 | 2.92 ± 1.48 | 13.36 ± 6.10 | 91.72 ± 12.34 | 0.75 ± 0.51 ×10^5/mL
